In patent US20210116454A1, “METHODS FOR TREATING A HEMATOLOGICAL CANCER AND THE USE OF COMPANION BIOMARKERS FOR 2-(2,6-DIOXOPIPERIDIN-3-YL)-4-((2-FLUORO-4-((3-MORPHOLINOAZETIDIN-1-YL)METHYL)BENZYL)AMINO)ISOINDOLINE-1,3-DIONE” (CELGENE CORPORATION, priority 2019, published 2021):
Where two headings read alike, the source gives them in different places.

Experiments:
[1] = test system: SU-DHL-6; assay: 5-day viable cell number and apoptosis (7-AAD exclusion/Annexin V flow cytometry); format: cell-based; conditions: SU-DHL-6 cells, 5 days
Outline: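 DLBCL lines were exposed to increasing compound doses for five days. Viable cell number was then counted, and apoptosis was scored by flow cytometry using 7-AAD exclusion with Annexin V staining.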

[2] = test system: Farage CRBN^WT cells; assay: Cell proliferation in CRBN^WT (CAS9 control) cells, 5 days; format: cell-based; conditions: 120 h
Text: (§1) The activated B-cell (ABC) and MYC/BCL2 double expressor cell lines SU-DHL-2 and RIVA, the germinal center B-cell (GCB) and MYC/BCL2 double hit cell lines (and expressing BCL6) Karpas-422, SU-DHL-10, WSU-DLCL2, and the primary mediastinal B-cell lymphoma (PMBL) cell line Farage were infected with a CAS9 expressing lentivirus construct to generate the control CAS9 expressing cells. The Cas9 cells had wild type cereblon expression (CRBN^WT).
(§2) To generate the cereblon knock out cells (CRBN^−/−), the individual control CAS9 cells were infected with a construct expressing a subgenomic single guide RNA (sgRNA). Western blot analysis confirmed the absence of cereblon protein in the CRBN^−/− cells, relative to the levels of the housekeeping protein β-tubulin. The CRBN^WT and CRBN^−/− cells were treated with increasing concentrations of Compound 1 for five days.

[3] = test system: Karpas-422 CRBN^WT cells; assay: as above; format: cell-based; conditions: Homo sapiens, 120 h
Text: as §1, §2

[4] = test system: RIVA CRBN^WT cells; assay: as above; format: cell-based; conditions: 120 h
Text: as §1, §2

[5] = test system: SU-DHL10 CRBN^WT cells; assay: as above; format: cell-based; conditions: Homo sapiens, 120 h
Text: as §1, §2

[6] = test system: SU-DHL2 CRBN^WT cells; assay: as above; format: cell-based; conditions: Homo sapiens, SU-DHL-2, 120 h
Text: as §1, §2

[7] = test system: WSU-DLCL2 CRBN^WT cells; assay: as above; format: cell-based; conditions: Homo sapiens, WSUDLCL2, 120 h
Text: as §1, §2

[8] = biological target: cereblon (CRBN) (Homo sapiens, UniProt Q96SW2); assay: Cereblon binding TR-FRET ligand competition assay
Experimental: To investigate whether Compound 1 and its R-enantiomer Compound 2 could bind to cereblon, a short duration (10 to 20 minutes) ligand competition assay was used.

[9] = test system: Peripheral blood mononuclear cells derived from four healthy donors; assay: Viability of CD3-stimulated PBMCs (Viobility Fixable Dye, flow cytometry); format: cell-based
Experimental: To establish that this was due to the effect of the compound in promoting Ikaros degradation and not because of a lack of cell proliferation or viability of the CD3-stimulated PBMCs, the effect of Compound 1 on their viability was assessed by flow cytometry. […] Peripheral blood mononuclear cells derived from four healthy donors were exposed to Compound 1 at concentrations of 0.1, 1, 10, or 100 nM for 3, 4, or 7 days, and viability was measured by staining with Viobility™ Fixable Dye. […] The trend in cell viability continued through day 7, with Compound 1 treatment not effecting the viability of the PBMCs.

[10] = biological target: Ikaros (Homo sapiens, UniProt Q13422+Q96SW2); assay: Enzyme fragment complementation (EFC) degradation assay, DF15 cells expressing ePL-tagged substrate; format: cell-based; design: expressed in transfected cells; host or cells: DF15 cells; conditions: for Emax: DF15, DF15 ePL-Ikaros, remaining substrate; for DC50: DF15 ePL-Ikaros, read-out: Ikaros degradation EC50

O=C1CC[C@H](N2C(=O)c3cccc(NCc4ccc(CN5CC(N6CCOCC6)C5)cc4F)c3C2=O)C(=O)N1 [Compound 1, (S)-2-(2,6-dioxopiperidin-3-yl)-4-((2-fluoro-4-((3-morpholinoazetidin-1-yl)methyl)benzyl)amino)isoindoline-1,3-dione]
EC50 ([1]; Homo sapiens, 120 h): 452 nM | Emax ([1]; Homo sapiens, 120 h): 46.3% | IC50 ([1]; Homo sapiens, 120 h): 260 nM | % Viable Cells AUC [1]: 88.38 | % Viable Cells Emax [1]: 5.843% | % Viable Cells Sensitivity [1]: High (highly sensitive to Compound 1 with less than 6% viable cells remaining (Emax) after treatment) | Apoptosis AUC [1]: 421.1 | Apoptosis Sensitivity [1]: High | Emax [2]: 0.5% | IC50 [2]: 8 nM | Emax [3]: 5% | IC50 [3]: 15 nM | Emax [4]: 30% | IC50 [4]: 8 nM | Emax [5]: 0% | IC50 [5]: 35 nM | Emax [6]: 1% | IC50 [6]: 2.5 nM | Emax [7]: 19% | IC50 [7]: 40 nM | higher binding affinity for CRBN compared to Compound 2 [8]: eleven-fold | IC50 ([8]; 10 to 20 minutes, n=5): 860 ± 100 nM | effect on PBMC viability ([9]; 0.1, 1, 10, or 100 nM for 3, 4, or 7 days): no significant effect | viable PBMCs ([9]; day 3 and day 4, 0.1, 1, 10, or 100 nM): roughly 80% | Emax ([10]; 1 hour): 75.5% | Emax ([10]; 2 hours): 33% | Emax ([10]; 6 hours): 1.5% | Emax ([10]; 24 hours): 0.03% | DC50 ([10]; 1 hour): 0.6 nM | DC50 ([10]; 2 hours): 0.8 nM | DC50 ([10]; 6 hours): 0.5 nM | DC50 ([10]; 24 hours): 0.4 nM
